US20210388015A1, “GLUCOPYRANOSE DERIVATIVES USEFUL AS SGLT2 INHIBITORS” (Janssen Pharmaceutica NV, priority 2018, published 2021)
Counter-ions that a name gives are not always drawn. Like-named read-outs stand apart in the source and are kept apart here.

Experiments:
[1] = target: T1, human SGLT2 (Homo sapiens, UniProt P31639); assay: SGLT2 inhibition assay, 14C-AMG uptake in CHO-K1 cells stably expressing human SGLT2; type: cell-based
T1 construct: expressed in transfected cells; host or cells: CHO-K1
T1 sequence (P31639 1-672): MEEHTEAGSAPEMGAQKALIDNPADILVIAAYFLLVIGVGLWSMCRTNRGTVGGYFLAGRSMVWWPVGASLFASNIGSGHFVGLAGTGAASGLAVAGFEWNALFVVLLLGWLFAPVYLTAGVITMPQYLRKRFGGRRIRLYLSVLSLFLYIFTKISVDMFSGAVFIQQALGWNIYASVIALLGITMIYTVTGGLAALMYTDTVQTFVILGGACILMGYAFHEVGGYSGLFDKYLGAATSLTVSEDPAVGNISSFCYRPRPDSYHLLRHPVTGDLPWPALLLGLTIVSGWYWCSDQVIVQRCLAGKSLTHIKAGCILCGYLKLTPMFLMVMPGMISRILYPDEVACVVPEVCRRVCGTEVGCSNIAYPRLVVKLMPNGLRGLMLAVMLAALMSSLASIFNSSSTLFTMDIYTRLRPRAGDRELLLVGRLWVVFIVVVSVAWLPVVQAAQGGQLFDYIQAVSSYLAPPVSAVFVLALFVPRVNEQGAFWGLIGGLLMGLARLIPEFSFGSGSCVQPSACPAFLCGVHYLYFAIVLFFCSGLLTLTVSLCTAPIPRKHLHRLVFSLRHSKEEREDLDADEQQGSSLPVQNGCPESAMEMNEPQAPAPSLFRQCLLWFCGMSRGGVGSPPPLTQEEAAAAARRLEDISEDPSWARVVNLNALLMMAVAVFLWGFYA
Method: (§1) The cells were incubated for 24 hours. […] Plates were counted in a TopCount (Packard, Meriden, Conn.). Each experiment was repeated at least twice.
(§2) Results are reported as the %-inhibition or IC50 value.

[2] = target: T2, human SGLT1 (Homo sapiens, UniProt P13866); assay: SGLT1 inhibition assay, 14C-AMG uptake in CHO-K1 cells stably expressing human SGLT1; type: cell-based
T2 construct: expressed in transfected cells; host or cells: CHO-K1
T2 sequence (P13866 1-664): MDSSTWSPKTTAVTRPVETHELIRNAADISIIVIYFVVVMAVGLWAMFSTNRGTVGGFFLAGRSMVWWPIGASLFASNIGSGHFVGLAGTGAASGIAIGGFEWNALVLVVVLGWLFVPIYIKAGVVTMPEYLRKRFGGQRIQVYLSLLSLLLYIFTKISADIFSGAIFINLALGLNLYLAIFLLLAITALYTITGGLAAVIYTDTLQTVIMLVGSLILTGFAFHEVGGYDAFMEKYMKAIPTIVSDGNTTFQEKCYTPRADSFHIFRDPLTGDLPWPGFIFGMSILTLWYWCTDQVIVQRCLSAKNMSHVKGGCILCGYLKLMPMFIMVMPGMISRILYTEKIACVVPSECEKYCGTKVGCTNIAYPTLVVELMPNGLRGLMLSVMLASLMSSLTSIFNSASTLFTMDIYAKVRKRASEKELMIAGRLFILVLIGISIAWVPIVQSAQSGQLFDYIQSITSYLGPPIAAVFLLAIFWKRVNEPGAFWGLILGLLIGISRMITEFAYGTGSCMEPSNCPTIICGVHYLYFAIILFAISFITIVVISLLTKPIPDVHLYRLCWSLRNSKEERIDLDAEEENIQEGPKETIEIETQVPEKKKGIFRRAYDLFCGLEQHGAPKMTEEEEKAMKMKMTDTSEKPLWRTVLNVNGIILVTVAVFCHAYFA
Method: as §1, §2

[3] = CHO-K1, CHO-K1 cells, 1 μM test compound, read-out: CHO-K1 Cells SGLT1 % Inh @1 μM

SMILES	IC50 [1]	also measured
COCCOCCOCCOCCOc1ccc(Cc2cc([C@@H]3O[C@H](CO)[C@@H](O)[C@H](O)[C@H]3O)ccc2Cl)cc1 [Compound 1]		inhibition at 1 µM [2, 3]: 14.5%
C[N+](C)(CCCc1ccc(-c2ccc(Cc3cc([C@@H]4O[C@H](CO)[C@@H](O)[C@H](O)[C@H]4O)ccc3Cl)s2)cc1)CCOc1ccc(-c2ccc(Cc3cc([C@@H]4O[C@H](CO)[C@@H](O)[C@H](O)[C@H]4O)ccc3Cl)s2)cc1 [Compound 19, N-(2-(4-(5-(2-chloro-5-((2S,3R,4R,5S,6R)-3,4,5-trihydroxy-6-(hydroxymethyl)tetrahydro-2H-pyran-2-yl)benzyl)thiophen-2-yl)phenoxy)ethyl)-3-(4-(5-(2-chloro-5-((2S,3R,4R,5S,6R)-3,4,5-trihydroxy-6-(hydroxymethyl)tetrahydro-2H-pyran-2-yl)benzyl)thiophen-2-yl)phenyl)-N,N-dimethylpropan-1-aminium trifluoroacetate]	24 nM	
C[N+]1(Cc2ccc(COc3ccc(Cc4cc([C@@H]5O[C@H](CO)[C@@H](O)[C@H](O)[C@H]5O)ccc4Cl)cc3)cc2)CCC(C2CC[N+](C)(Cc3ccc(COc4ccc(Cc5cc([C@@H]6O[C@H](CO)[C@@H](O)[C@H](O)[C@H]6O)ccc5Cl)cc4)cc3)CC2)CC1 (stereo partly drawn) [Compound 16, 1,1′-bis(4-((4-(2-chloro-5-((2S,3R,4R,5S,6R)-3,4,5-trihydroxy-6-(hydroxymethyl)tetrahydro-2H-pyran-2-yl)benzyl)phenoxy)methyl)benzyl)-1,1′-dimethyl-[4,4′-bipiperidine]-1,1′-diium trifluoroacetate]	4 nM	
C[N+]1(Cc2ccc(COc3ccc(Cc4cc([C@@H]5O[C@H](CO)[C@@H](O)[C@H](O)[C@H]5O)ccc4Cl)cc3)cc2)CCC(CCC2CC[N+](C)(Cc3ccc(COc4ccc(Cc5cc([C@@H]6O[C@H](CO)[C@@H](O)[C@H](O)[C@H]6O)ccc5Cl)cc4)cc3)CC2)CC1 (stereo partly drawn) [Compound 17, 4,4′-(ethane-1,2-diyl)bis(1-(4-((4-(2-chloro-5-((2S,3R,4R,5S,6R)-3,4,5-trihydroxy-6-(hydroxymethyl)tetrahydro-2H-pyran-2-yl)benzyl)phenoxy)methyl)benzyl)-1-methylpiperidin-1-ium) trifluoroacetate]	5 nM	
O=S(=O)(O)CCCOc1ccc(Cc2cc([C@@H]3O[C@H](CO)[C@@H](O)[C@H](O)[C@H]3O)ccc2Cl)cc1 [Compound 2, 3-(4-(2-chloro-5-((2S,3R,4R,5S,6R)-3,4,5-trihydroxy-6-(hydroxymethyl)tetrahydro-2H-pyran-2-yl)benzyl)phenoxy)propane-1-sulfonic acid]		inhibition at 1 µM [2, 3]: 20%
O=C(O)C(CCC(Oc1ccc(Cc2cc([C@@H]3O[C@H](CO)[C@@H](O)[C@H](O)[C@H]3O)ccc2Cl)cc1)C(=O)O)Oc1ccc(Cc2cc([C@@H]3O[C@H](CO)[C@@H](O)[C@H](O)[C@H]3O)ccc2Cl)cc1 (mixture of isomers) [Compound 18]	377 nM	
C[N+]1(CCOCCOc2ccc(Cc3cc([C@@H]4O[C@H](CO)[C@@H](O)[C@H](O)[C@H]4O)ccc3Cl)cc2)CCCC1 [Compound 7]		inhibition at 1 µM [2, 3]: 17.5%
C[N+]1(CCCCCOc2ccc(Cc3cc([C@@H]4O[C@H](CO)[C@@H](O)[C@H](O)[C@H]4O)ccc3Cl)cc2)CCCC1 [Compound 6, 1-(5-(4-(2-chloro-5-((2S,3R,4R,5S,6R)-3,4,5-trihydroxy-6-(hydroxymethyl)tetrahydro-2H-pyran-2-yl)benzyl)phenoxy)pentyl)-1-methylpyrrolidin-1-ium trifluoroacetate]		inhibition at 1 µM [2, 3]: 43.1%
OC[C@H]1O[C@@H](c2ccc(Cl)c(Cc3ccc(OCc4ccc(COc5ccc(Cc6cc([C@@H]7O[C@H](CO)[C@@H](O)[C@H](O)[C@H]7O)ccc6Cl)cc5)nc4)cc3)c2)[C@H](O)[C@@H](O)[C@@H]1O [Compound 14, (2R,2′R,3S,3′S,4R,4′R,5R,5′R,6S,6′S)-6,6′-(((((pyridine-2,5-diylbis(methylene))bis(oxy))bis(4,1-phenylene))bis(methylene))bis(4-chloro-3,1-phenylene))bis(2-(hydroxymethyl)tetrahydro-2H-pyran-3,4,5-triol) trifluoroacetate]	4.8 nM	inhibition at 1 µM ([2]; CHO-K1, read-out: CHO-K1 Cells SGLT1 % Inh @1 μM): 19%

Further lines, with some results ahead:

IC50 [1]	SMILES	also measured
32 nM	OC[C@H]1O[C@@H](c2ccc(Cl)c(Cc3ccc(OCc4ccc(COc5ccc(Cc6cc([C@@H]7O[C@H](CO)[C@@H](O)[C@H](O)[C@H]7O)ccc6Cl)cc5)cc4)cc3)c2)[C@H](O)[C@@H](O)[C@@H]1O [Compound 13]	
9.6 nM	OC[C@H]1O[C@@H](c2ccc(Cl)c(Cc3ccc(OCCOCCOCCOCCOc4ccc(Cc5cc([C@@H]6O[C@H](CO)[C@@H](O)[C@H](O)[C@H]6O)ccc5Cl)cc4)cc3)c2)[C@H](O)[C@@H](O)[C@@H]1O [Compound 12]	
20.8 nM	OC[C@H]1O[C@@H](c2ccc(Cl)c(Cc3ccc(OCCOCCOCCOc4ccc(Cc5cc([C@@H]6O[C@H](CO)[C@@H](O)[C@H](O)[C@H]6O)ccc5Cl)cc4)cc3)c2)[C@H](O)[C@@H](O)[C@@H]1O [Compound 11]	
33 nM	OC[C@H]1O[C@H](c2ccc(Cl)c(Cc3ccc(OCc4cc(COc5ccc(Cc6cc([C@@H]7O[C@H](CO)[C@@H](O)[C@H](O)[C@H]7O)ccc6Cl)cc5)c(COc5ccc(Cc6cc([C@@H]7O[C@H](CO)[C@@H](O)[C@H](O)[C@H]7O)ccc6Cl)cc5)cc4COc4ccc(Cc5cc([C@@H]6O[C@H](CO)[C@@H](O)[C@H](O)[C@H]6O)ccc5Cl)cc4)cc3)c2)[C@H](O)[C@@H](O)[C@@H]1O [(III), (2R,2′R,2″R,3S,3′S,3″S,4R,4′R,4″R,5R,5′R,5″R,6S,6′S,6″S)-6,6′,6″-((((((5-((4-(2-chloro-5-((2R,3R,4R,5S,6R)-3,4,5-trihydroxy-6-(hydroxymethyl)tetrahydro-2H-pyran-2-yl)benzyl)phenoxy)methyl)benzene-1,2,4-triyl)tris(methylene))tris(oxy))tris(benzene-4,1-diyl))tris(methylene))tris(4-chlorobenzene-3,1-diyl))tris(2-(hydroxymethyl)tetrahydro-2H-pyran-3,4,5-triol)]	
7.6 nM	OC[C@H]1O[C@@H](c2ccc(Cl)c(Cc3ccc(OCCOCCOc4ccc(Cc5cc([C@@H]6O[C@H](CO)[C@@H](O)[C@H](O)[C@H]6O)ccc5Cl)cc4)cc3)c2)[C@H](O)[C@@H](O)[C@@H]1O [Compound 10, (2R,2′R,3S,3′S,4R,4′R,5R,5′R,6S,6′S)-6,6′-(((((oxybis(ethane-2,1-diyl))bis(oxy))bis(4,1-phenylene))bis(methylene))bis(4-chloro-3,1-phenylene))bis(2-(hydroxymethyl)tetrahydro-2H-pyran-3,4,5-triol)]	IC50 ([2]; CHO-K1 cells, IC50 printed in the % Inh column): 1490 nM
121 nM	C[N+](C)(CCOc1ccc(Cc2cc([C@@H]3O[C@H](CO)[C@@H](O)[C@H](O)[C@H]3O)ccc2Cl)cc1)CCOc1ccc(Cc2cc([C@@H]3O[C@H](CO)[C@@H](O)[C@H](O)[C@H]3O)ccc2Cl)cc1 [Compound 15, trifluoroacetate]	
